Laboratory results from patent US7994140B2, “Classes of compounds that interact with GPCRs” (Alchemia Limited, priority 2002, dated 2011).

Biological target: T1, SST5 (Homo sapiens, UniProt P35346)
T1 construct: purchased Perkin Elmer BioSignal; host or cells: HEK 293
Test: GPCR radioligand binding (RLB) assay, somatostatin SST5, [125I]SST-14
Details: 10 micromolar compound; recombinant human receptor membranes (HEK 293)
Protocol: Recombinant human receptors expressed in HEK 293 cells were used for all experiments. Receptor membrane preparations were purchased from Perkin Elmer BioSignal. The labelled ligand used in somatostatin GPCR RLB assays was [^125I]SST-14 and in melanocortin assays was [^125I]NDP-αMSH. All assays were done in a 96-well plate format using either glass fiber filter mats or filter plates. All reagents purchased were of the highest quality.
Specific assay buffer, incubation and washing conditions were optimized for each receptor however they all followed the same general format. The procedures for both filter mat and filter plate formats are based on the receptor manufacturers recommendations or those described extensively in the literature. The procedures are briefly outlined below.
In assays where filter mats are used we incubate receptor membranes, assay buffer and [^125I] labelled ligand in 96 well microplates. Add compounds to incubation mixture and continue incubation for optimized period. Presoak Filter mat GF/B in 0.5% PEI for ˜2 hr at 4° C. On completion of assay mixture incubation add additional 100 μL/well of assay buffer immediately prior to filtration. Filter the assay mixture onto the GF/B filter mat using a cell harvester. Dry the filter mats prior to sealing them into a scintillation counting bag with scintillant. Radioactivity in each well is detected by liquid scintillation counting.
In assays where filter plates are used Multiscreen glass fiber filter plates (Millipore, Cat No MAFCNOB10) are precoated with 0.5% PEI for ˜2 hr at 4° C. All wells are then washed with 200 µl/well assay buffer and filtered using the Multiscreen Separation System. Subsequently receptor membranes, assay buffer and labelled ligands are added to the wells and equilibrated. Compounds for testing are then added to the mixture and incubation is continued for an optimized time. Plates are then put into the Multiscreen Separation System and the assay mixture is filtered through the plate under vacuum. Each well is then washed several times with assay buffer. Plates are then dried prior to putting sealing tape onto the bottom of the plate. Scintillant is added to each well and radioactivity measured by liquid scintillation counting.
Raw data was analysed according to standard methods using either GraphPad Prism software or IDDBS ActivityBase software.

T1 sequence (P35346 whole entry): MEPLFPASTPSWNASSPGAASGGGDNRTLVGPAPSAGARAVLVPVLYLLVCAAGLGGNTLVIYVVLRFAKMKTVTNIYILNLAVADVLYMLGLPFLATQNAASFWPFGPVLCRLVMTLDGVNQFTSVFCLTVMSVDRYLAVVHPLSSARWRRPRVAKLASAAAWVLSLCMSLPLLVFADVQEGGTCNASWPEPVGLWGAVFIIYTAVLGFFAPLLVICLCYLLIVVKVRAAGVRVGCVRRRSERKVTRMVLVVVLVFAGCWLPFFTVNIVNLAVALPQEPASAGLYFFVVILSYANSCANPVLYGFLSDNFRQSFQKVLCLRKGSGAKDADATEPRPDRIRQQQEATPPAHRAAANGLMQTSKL

| SMILES | SST5 inhibition at 10 micromolar |
| --- | --- |
| CSC1O[C@H](COCc2ccccc2)[C@@H](O)[C@H](OCc2cccc(N)c2)[C@H]1NC(=O)c1ccccc1 (stereo partly shown) [Compound 316] | + (Indicates inhibition greater than . . . 50%) |
| CSC1OC(COCc2ccc(Cl)cc2)C(O)C(OCc2ccc(Cl)cc2)C1NC(=O)CN (stereo not shown) [Compound 149] | + (Indicates inhibition greater than . . . 50%) |
| COC[C@H]1OC(OCc2ccc(Cl)cc2)[C@H](NC(=O)CCCN)[C@@H](OCc2cccc(O)c2)[C@@H]1O (stereo partly shown) [Compound 26] | + (Indicates inhibition greater than . . . 50%) |
| COC[C@H]1OC(OCc2ccccc2)[C@H](NC(=O)CCCN)[C@@H](OCc2ccc(-c3ccccc3)cc2)[C@@H]1O (stereo partly shown) [Compound 7] | + (Indicates inhibition greater than . . . 50%) |
| CO[C@H]1[C@H](O)[C@@H](COCc2cccc(O)c2)OC(OCc2ccc3ccccc3c2)[C@@H]1NC(=O)CCCN (stereo partly shown) [Compound 109] | + (Indicates inhibition greater than . . . 50%) |
| COC[C@H]1OC(OCc2ccc3ccccc3c2)[C@H](NC(=O)CCCNC(=N)N)[C@@H](OCc2ccccc2)[C@@H]1O (stereo partly shown) [Compound 41] | + (Indicates inhibition greater than . . . 50%) |
| COC[C@H]1OC(OCc2ccc(-c3ccccc3)cc2)[C@H](NC(=O)CCCN)[C@@H](OCc2ccccc2)[C@@H]1O (stereo partly shown) [Compound 3] | + (Indicates inhibition greater than . . . 50%) |
| CSC1OC(COCc2ccc(-c3ccccc3)cc2)C(O)C(OCc2ccc(-c3ccccc3)cc2)C1NC(=O)CCCNC(=N)N (stereo not shown) [Compound 184] | + (Indicates inhibition greater than . . . 50%) |
| CO[C@H]1[C@H](O)[C@@H](COCc2ccc(Cl)cc2)OC(OCc2cccc(O)c2)[C@@H]1NC(=O)CCCN (stereo partly shown) [Compound 118] | + (Indicates inhibition greater than . . . 50%) |
| COC[C@H]1OC(OCc2ccc(Cl)cc2)[C@H](NC(=O)CCCN)[C@@H](OCc2ccc(Cl)cc2)[C@@H]1O (stereo partly shown) [Compound 55] | + (Indicates inhibition greater than . . . 50%) |
| COC[C@H]1OC(OCc2ccccc2)[C@H](NC(=O)CCCN)[C@@H](OCc2ccc(Cl)cc2)[C@@H]1O (stereo partly shown) [Compound 11] | + (Indicates inhibition greater than . . . 50%) |
| CSC1O[C@H](COCc2ccccc2)[C@@H](O)[C@H](OCc2cccc(N)c2)[C@H]1NC(=O)Cc1c[nH]c2ccccc12 (stereo partly shown) [Compound 319] | + (Indicates inhibition greater than . . . 50%) |
| COC[C@H]1OC(OCc2ccccc2)[C@H](NC(=O)CCCNC(=N)N)[C@@H](OCc2ccc(-c3ccccc3)cc2)[C@@H]1O (stereo partly shown) [Compound 8] | + (Indicates inhibition greater than . . . 50%) |
| CSC1OC(COC(=O)Cc2c[nH]c3ccccc23)C(O)C(OCc2cccc(N)c2)C1NCc1ccc(Cl)cc1 (stereo not shown) [Compound 315] | + (Indicates inhibition greater than . . . 50%) |
| CSC1OC(COCc2ccccc2)C(O)C(OCc2ccccc2)C1NC(=O)CCCN (stereo not shown) [Compound 123] | + (Indicates inhibition greater than . . . 50%) |
| COC[C@H]1OC(OCc2ccc(-c3ccccc3)cc2)[C@H](NC(=O)CCCN)[C@@H](OCc2cccc(O)c2)[C@@H]1O (stereo partly shown) [Compound 22] | + (Indicates inhibition greater than . . . 50%) |
| CSC1OC(COC(=O)Cc2c[nH]c3ccccc23)C(O)C(OCc2cccc(N)c2)C1NCc1ccccc1 (stereo not shown) [Compound 310] | + (Indicates inhibition greater than . . . 50%) |
| COC[C@H]1OC(OCCc2ccccc2)[C@H](NC(=O)CCCNC(=N)N)[C@@H](OCc2ccc(Cl)cc2)[C@@H]1O (stereo partly shown) [Compound 52] | + (Indicates inhibition greater than . . . 50%) |
| COC[C@H]1OC(OCc2ccc(Cl)cc2)[C@H](NC(=O)CCCN)[C@@H](OCc2ccc(-c3ccccc3)cc2)[C@@H]1O (stereo partly shown) [Compound 44] | + (Indicates inhibition greater than . . . 50%) |
| CSC1OC(COCc2cccc(N)c2)C(O)C(OCc2ccccc2)C1NC(=O)Cc1c[nH]c2ccccc12 (stereo not shown) [Compound 329] | + (Indicates inhibition greater than . . . 50%) |
| CO[C@H]1[C@H](O)[C@@H](COCc2ccccc2)OC(OCc2ccc(Cl)cc2)[C@@H]1NC(=O)CCCN (stereo partly shown) [Compound 91] | + (Indicates inhibition greater than . . . 50%) |
| CSC1OC(COCc2ccccc2)C(O)C(OCc2ccc(Cl)cc2)C1NC(=O)CCCN (stereo not shown) [Compound 147] | + (Indicates inhibition greater than . . . 50%) |
| CSC1O[C@H](COCc2ccc(Cl)cc2)[C@@H](O)[C@H](OCc2cccc(N)c2)[C@H]1NC(=O)Cc1ccccc1 (stereo partly shown) [Compound 322] | + (Indicates inhibition greater than . . . 50%) |
| COC[C@H]1OC(OCc2ccc3ccccc3c2)[C@H](NC(=O)CCCN)[C@@H](OCc2cccc(O)c2)[C@@H]1O (stereo partly shown) [Compound 23] | + (Indicates inhibition greater than . . . 50%) |
| CSC1OC(COCc2cccc(N)c2)C(O)C(OCc2ccccc2)C1NC(=O)c1ccccc1 (stereo not shown) [Compound 326] | + (Indicates inhibition greater than . . . 50%) |
| CSC1O[C@H](COCc2ccc(Cl)cc2)[C@@H](O)[C@H](OCc2cccc(N)c2)[C@H]1NC(=O)c1ccccc1 (stereo partly shown) [Compound 321] | + (Indicates inhibition greater than . . . 50%) |
| COC[C@H]1OC(OCc2ccccc2)[C@H](NC(=O)CCNC(=N)N)[C@@H](OCc2ccc(Cl)cc2)[C@@H]1O (stereo partly shown) [Compound 10] | + (Indicates inhibition greater than . . . 50%) |
| CO[C@H]1[C@H](O)[C@@H](COCc2ccc3ccccc3c2)OC(OCc2ccc(-c3ccccc3)cc2)[C@@H]1NC(=O)CCNC(=N)N (stereo partly shown) [Compound 60] | + (Indicates inhibition greater than . . . 50%) |

Same assay, conditions: 10 micromolar; Example Library 4

| SMILES | SSTS inhibition at 10 micromolar |
| --- | --- |
| COCC1OC(OCc2ccccc2)C(NC(=O)CN)C(OCc2ccc3ccccc3c2)C1O (stereo not shown) [Compound 231] | + (Indicates inhibition greater than . . . 50%) |
| COCC1OC(OCc2ccc3ccccc3c2)C(NC(=O)CCN)C(OCc2ccc(Cl)cc2)C1O (stereo not shown) [Compound 292] | + (Indicates inhibition greater than . . . 50%) |
| COCC1OC(OCc2ccc3ccccc3c2)C(NC(=O)CN)C(OCc2ccc(Cl)cc2)C1O (stereo not shown) [Compound 290] | + (Indicates inhibition greater than . . . 50%) |
| COCC1OC(OCc2ccc(Cl)cc2)C(NC(=O)CCCN)C(OCc2ccccc2)C1O (stereo not shown) [Compound 240] | + (Indicates inhibition greater than . . . 50%) |
| COCC1OC(OCc2ccc3ccccc3c2)C(NC(=O)CCCN)C(OCc2ccccc2)C1O (stereo not shown) [Compound 288] | + (Indicates inhibition greater than . . . 50%) |
| COCC1OC(OCc2ccc3ccccc3c2)C(NC(=O)CN)C(OCc2ccccc2)C1O (stereo not shown) [Compound 284] | + (Indicates inhibition greater than . . . 50%) |
| COCC1OC(OCc2ccccc2)C(NC(=O)CCN)C(OCc2ccccc2)C1O (stereo not shown) [Compound 215] | + (Indicates inhibition greater than . . . 50%) |
| COCC1OC(OCCc2ccccc2)C(NC(=O)CCN)C(OCc2ccccc2)C1O (stereo not shown) [Compound 262] | + (Indicates inhibition greater than . . . 50%) |
| COCC1OC(OCc2ccc(Cl)cc2)C(NC(=O)CCN)C(OCc2ccccc2)C1O (stereo not shown) [Compound 238] | + (Indicates inhibition greater than . . . 50%) |
